# Test results taken from patent US5639904A, “1-aryloxy-3-alkylamino-2-propanol nitrate esters, the use thereof and corresponding pharmaceutical composition” (Prodesfarma, S.A., priority 1993, dated 1997).
# Like-named read-outs stand apart in the source and are kept apart here.
# What was measured:
# Assay type in all cases: cell-based
# [1] = system: helical strips of swine coronary artery (potassium-induced contraction); assay: In vitro coronary vasodilator activity: antagonism of contractions induced by potassium (35 mM); conditions: Sus scrofa; for IC50: read-out: inhibitory concentration 50 (IC50), effect on K+-induced contractions in swine coronary artery; for inhibition at 100 µM: read-out: inhibition of K+-induced contractions in swine coronary artery
# Method: (§1) The coronary vasodilator activity of the synthesized products was determined in vitro from their capacity to antagonize the contractions induced by a) potassium (35 mM) b) calcium (1.5 mM) and c) serotonin (1 mM) in helical strips of swine coronary artery, using Nitroglycerine and Nicorandil as reference drugs (Table 1).
# [2] = system: helical strips of swine coronary artery (serotonin-induced contraction); assay: In vitro coronary vasodilator activity: antagonism of contractions induced by serotonin (1 mM); conditions: Sus scrofa; for IC50: read-out: inhibitory concentration 50 (IC50), effect on serotonin-induced contractions in swine coronary artery
# Method: as §1
# [3] = biological target: T1, β1-adrenergic (isolated guinea pig left auricle) (Cavia porcellus, UniProt H0W3H1); assay: In vitro β1-adrenergic blocking activity: antagonism of isoprenaline-induced positive inotropic response in electrically stimulated isolated left auricle
# T1 construct: electrically stimulated isolated left auricle of the guinea pig; from tissue; host or cells: isolated left auricle of guinea pig
# Description: In parallel tests, the effect of the said compounds on the positive isoprenaline-induced inotropic response in electrically stimulated isolated left auricle of the guinea pig, as evidence of β1 -adrenergic blocking activity (Table 2) was established.
# BLOCKING ACTIVITY IN VITRO
# [4] = system: helical strips of swine coronary artery (calcium-induced contraction); assay: In vitro coronary vasodilator activity: antagonism of contractions induced by calcium (1.5 mM); conditions: Sus scrofa; for IC50: read-out: inhibitory concentration 50 (IC50), effect on Ca2+-induced contractions in swine coronary artery
# Method: as §1
# [5] = electrically stimulated isolated guinea pig left auricle, read-out: inhibitory concentration 50 (IC50), antagonism of isoprenaline-induced positive inotropic response
# T1 sequence (H0W3H1 1-470): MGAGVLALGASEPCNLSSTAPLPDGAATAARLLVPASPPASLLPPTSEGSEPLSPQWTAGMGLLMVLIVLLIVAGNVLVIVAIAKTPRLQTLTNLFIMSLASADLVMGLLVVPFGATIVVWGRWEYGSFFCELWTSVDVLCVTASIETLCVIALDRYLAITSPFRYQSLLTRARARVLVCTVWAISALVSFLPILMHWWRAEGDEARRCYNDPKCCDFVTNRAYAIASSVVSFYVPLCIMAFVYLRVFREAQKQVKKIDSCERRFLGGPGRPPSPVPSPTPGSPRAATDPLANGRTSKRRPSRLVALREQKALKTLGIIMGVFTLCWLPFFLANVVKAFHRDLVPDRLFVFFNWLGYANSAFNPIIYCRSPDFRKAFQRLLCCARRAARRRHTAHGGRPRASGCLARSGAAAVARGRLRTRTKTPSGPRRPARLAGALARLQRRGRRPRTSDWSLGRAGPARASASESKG
Compound,IC50 ([1]; potassium 35 mM) [µM],IC50 ([2]; serotonin 1 mM) [µM],"IC50 [3, 5] [µM]",further results
CC(C)NCC(O)COc1c(CC(=O)NCCO[N+](=O)[O-])ccc2ccccc12 (stereo not drawn) [1-(2-hydroxy-3-isopropylamino)propoxy-N-(2-nitroxyethyl)-2-naphthalene acetamide],40.7,,,
"CC(C)NCC(O)COc1ccc(COCC(CO[N+](=O)[O-])O[N+](=O)[O-])cc1 (stereo not drawn) [1-isopropylamino-3-[4-(2,3-dinitroxy)-propoxymethyl]phenoxy-2-propanol]",,,,IC50 [1]: 0.5 µM; IC50 [2]: 1.6 µM; IC50 [3]: 4.8 µM; IC50 [4]: 1.7 µM
CC(C)NCC(O)COc1ccc(COCCO[N+](=O)[O-])cc1 (stereo not drawn) [1-isopropylamino-3-[4-(2-nitroxy)ethoxymethyl]phenoxy-2-propanol],3.4,13.3,0.6,
CC(C)NCC(O)COc1ccc(COCCCO[N+](=O)[O-])cc1 (stereo not drawn) [1-isopropylamino-3-[4-(3-nitroxy)propoxymethyl]phenoxy-2-propanol],7.1,6,0.7,"inhibition at 30 µM ([4]; at 30 μM, calcium 1.5 mM, read-out: inhibition of Ca2+-induced contractions in swine coronary artery): 50%"
CC(C)NCC(O)COc1ccc2ccccc2c1CC(=O)NCCO[N+](=O)[O-] (stereo not drawn) [2-(2-hydroxy-3-isopropylamino)propoxy-N-(2-nitroxyethyl)-1-naphthalene acetamide],28.6,,,"inhibition at 100 µM ([2]; serotonin 1 mM): 50%; inhibition at 100 µM ([3]; at 0.1 mM, electrically stimulated isolated guinea pig left auricle): 25%; inhibition at 10 µM ([4]; at 10 μM, calcium 1.5 mM, read-out: inhibition of Ca2+-induced contractions in swine coronary artery): 20%"
CC(C)NCC(O)COc1ccc(CC(=O)OCCO[N+](=O)[O-])cc1 (stereo not drawn) [2-nitroxyethyl 4-[(2-hydroxy-3-isopropylamino)propoxy]phenyl acetate],0.3,5.7,7.6,IC50 ([4]; calcium 1.5 mM): 13.1 µM
"CC(C)NCC(O)COc1ccc(CC(N)=O)cc1 (stereo not drawn) [Atenolol, reference compound]",,,,inhibition at 100 µM [1]: 25%; IC50 [3]: 0.7 µM
"COCCc1ccc(OCC(O)CNC(C)C)cc1 (stereo not drawn) [Metoprolol, reference compound]",,,,"inhibition at 100 µM ([1]; at 0.1 mM, potassium 35 mM): 30%; inhibition at 100 µM ([2]; serotonin 1 mM): 20%"
"O=C(NCCO[N+](=O)[O-])c1cccnc1 [Nicorandil, reference compound]",49.7,14.7,,IC50 ([4]; calcium 1.5 mM): 169 µM
"O=[N+]([O-])OCC(CO[N+](=O)[O-])O[N+](=O)[O-] [Nitroglycerine, reference compound]",1.3,1,,"inhibition at 100 µM ([4]; at 0.1 mM, calcium 1.5 mM, read-out: inhibition of Ca2+-induced contractions in swine coronary artery): 50%"
